Measurements taken from PMC9190099, “Menthol carbonates as potent antiparasitic agents: synthesis and in vitro studies along with computer-aided approaches” (BMC Complementary Medicine and Therapies, 2022).
Where two headings read alike, the source gives them in different places.

Experiments:
[1] = in vitro
Protocol: Then, 100 µL of cell suspension and 100 μL of each concentration of the compounds were placed in each well of 96-well tissue culture microplate, and plates were incubated again at 37 °C, 5% CO2. […] The reaction was stopped with 100 μL/well of DMSO and absorbance was recorded at 570 nm (Varioskan Flash, Thermo Scientific, Waltham, MA, USA). […] Each measurement was done in triplicate in two independent experiments.
To calculate the cytotoxicity, the percentages of mortality for each concentration tested were calculated according to Eq. 1:
1 %Mortality=100-ODexposedcells/ODnonexposedcellsx100
(§1) Then, these percentages of mortality were used to calculate the median lethal concentrations (LC50) by Probit analysis using Graphpad Prism 8 software. In the case of antiparasitic activity (L. braziliensis, T. cruzi and P. falciparum), the percentage in the reduction of parasites for each concentration tested was quantified using Eq. 2:
(§2) All experiments were performed in triplicate. Both cytotoxicity and antiparasitic activity were classified as high, moderate, or low, according to ranges previously established based on the own hit criteria.

[2] = tested on: P. falciparum (3D7 strain); assay: In vitro antiplasmodial activity (pLDH); format: cell-based, Plasmodium falciparum; conditions: for Antiplasmodial activity IS (Index of Selectivity = LC50/EC50): LC50 U-937 / EC50 P. falciparum; for EC50: Plasmodium falciparum, P. falciparum 3D7, total forms, 48 h, read-out: Antiplasmodial activity EC50 (median effective concentration); for Antiplasmodial activity class: P. falciparum
Protocol: Unsynchronized P. falciparum (3D7 strain) culture was adjusted to 0.5% parasitemia and 1% hematocrit in RPMI medium enriched with 3% lipid-rich bovine serum albumin-Albumax II. In each well of a 96-well tissue culture plate, 100 µl of parasite suspension and 100 µl of each dilution of the compounds were added. Plates were incubated for 48 h at 37 °C, 90% N2, 5% CO2, 5% O2. After incubation, supernatants were harvested and parasites were subjected to three 20–minute freeze–thaw cycles. In a second flat–bottomed 96-well microtiter plate were dispensed 100 µL of Malstat reagent, pH 9.0, 25 µL of NBT/PES solution, and 15 µL of lysed parasites. Plates were incubated in the dark at 37 °C for 90 min and color development of the pLDH reaction was read at 650 nm (Varioskan, Thermo). […] Nonspecific absorbance was corrected by subtracting optical density (OD) of the blank. […]. Each measurement was done in triplicate in two independent experiments.
as §1, §2

[3] = tested on: T. cruzi intracellular amastigotes (Tulahuen strain); assay: In vitro activity for T. cruzi amastigotes in U-937 cells; format: cell-based, Trypanosoma cruzi; conditions: for Trypanocidal activity IS (Index of Selectivity = LC50/EC50): LC50 U-937 / EC50 T. cruzi; for EC50: Trypanosoma cruzi, TULAHUEN, U-937, intracellular amastigotes of T. cruzi, 72 h, read-out: Trypanocidal activity EC50 (median effective concentration)
Protocol: (§3) Compounds were solubilized in DMSO (1 mg/mL, w/v).
Plates were incubated at 37 °C, 5% CO2. After 72 h of incubation, cells were infected with 5:1 […] of Tulahuen strain (24 h of growing) per cell ratio. Plates were incubated at 37 °C, 5% CO2. After 24 h of incubation 100 μL of each compound concentration were added to each well and plates were incubated again at 37 °C, 5% CO2. After 72 h of incubation 100 μL of chlorophenol red-β-D-galactopyranoside (CPRG) at 100 µM and 0.1%, Nonidet P-40 was added, and after 3 h of incubation, absorbance was read at 570 nm (Varioskan, Thermo). Infected cells exposed to Benznidazole (BZN) were used as a control for trypanocidal activity (positive control) while infected and non-treated cells were used as a control for infection (negative control). Nonspecific absorbance was corrected as described above. Each measurement was done in triplicate in two independent experiments.
as §1
(§4) 2 %Parasitereduction=100ODorMFIexposedparasites/ODorMFIcontrolparasitesx100
as §2

[4] = tested on: L. braziliensis intracellular amastigotes (HMOM/COL/88/UA301-EGFP); assay: In vitro activity against L. braziliensis amastigotes in U-937 cells (flow cytometry); format: cell-based, Leishmania braziliensis; conditions: for Leishmanicidal activity IS (Index of Selectivity = LC50/EC50): LC50 U-937 / EC50 L. braziliensis; for EC50: intracellular amastigotes of L. braziliensis, 72 h, read-out: Leishmanicidal activity EC50 (median effective concentration); for Leishmanicidal activity class: L. braziliensis amastigotes
Protocol: as §3
One ml was dispensed into each well of a 24-well culture plate. After 72 h, cells were infected with promastigotes of L. braziliensis (HMOM/COL/88/UA301-EGFP) in a proportion of 15:1 (parasites per cell ratio). Plates were incubated at 34 °C, 5% CO2, and 3 h after non-internalized promastigotes were removed by washing twice with phosphate buffer (PBS). Plates were incubated again at 34 °C, 5% CO2, and 24 h later cells were washed with warm PBS and medium replaced. […] After 72 h, cells were removed using trypsin/EDTA solution and washed twice with PBS by centrifuging 10 min at 1100 rpm, 4 °C. […] The percentage of infected cells was calculated using dot plot analysis according to positive events for green fluorescence and then parasite load in these infected cells was calculated by histogram analysis according to the mean fluorescence intensity (MFI). Infected cells were used as control of infection (negative control) and infected cells exposed to Amphotericin B (AMB) were used as control of antileishmanial activity (positive control).
as §1, §4, §2

[5] = tested on: Leishmania amazonensis promastigotes; design: method as in earlier work; conditions: ref 53 (Silva et al. 2017), read-out: EC50 against Leishmania amazonensis promastigotes; cited from earlier work
[6] = tested on: Echinococcus multilocularis protoscoleces; design: method as in PMID 32101761; conditions: E. multilocularis protoscoleces, in vitro; cited from earlier work
[7] = tested on: murine model of alveolar echinococcosis; design: method as in PMID 32101761; conditions: listed as menthol-pentanol prodrug; cited from earlier work
[8] = Leishmania braziliensis, U-937, 72 h

Structure (SMILES): CC1CCC(C(C)C)C(OC(=O)OC(C)C)C1 (stereo not drawn) [Compound 4, Isopropyl(2-Isopropyl-5-methylcyclohexanol)carbonate]
- CC50 at 72 h [1]: 145 ± 74.5 µM
- Antiplasmodial activity IS (Index of Selectivity = LC50/EC50) [2]: 2.4
- EC50 [2]: 60.7 ± 1 µM
- Trypanocidal activity IS (Index of Selectivity = LC50/EC50) [3]: 0.1
- EC50 [3]: 2060 ± 175 µM
- Leishmanicidal activity IS (Index of Selectivity = LC50/EC50) [4]: 3.4
- EC50 [4, 8]: 43.2 ± 0.3 µM

Structure (SMILES): O=C(Cn1ccnc1[N+](=O)[O-])NCc1ccccc1 [BNZ, Benznidazole, reference compound]
- CC50 at 72 h [1]: > 768 µM
- Trypanocidal activity IS (Index of Selectivity = LC50/EC50) [3]: 12.8
- EC50 [3]: 60.1 ± 12.2 µM

Structure (SMILES): CCOC(=O)OC1CC(C)CCC1C(C)C (stereo not drawn) [Compound 2, Etyl(2-Isopropyl-5-methylcyclohexanol)carbonate]
- CC50 at 72 h [1]: 103 ± 35.8 µM
- Antiplasmodial activity IS (Index of Selectivity = LC50/EC50) [2]: 3.6
- Antiplasmodial activity class [2]: high (high (EC50 < 50 μM))
- EC50 [2]: 28.4 ± 0.4 µM
- Trypanocidal activity IS (Index of Selectivity = LC50/EC50) [3]: 3.1
- EC50 [3]: 33.8 ± 4.3 µM
- Leishmanicidal activity IS (Index of Selectivity = LC50/EC50) [4]: 3.6
- EC50 [4, 8]: 28.4 ± 0.4 µM

Structure (SMILES): C[C@@H]1[C@H](O)[C@@H](C)/C=C/C=C/C=C/C=C/C=C/C=C/C=C/[C@H](O[C@@H]2O[C@H](C)[C@@H](O)[C@H](N)[C@@H]2O)C[C@@H]2O[C@](O)(C[C@@H](O)C[C@@H](O)[C@H](O)CC[C@@H](O)C[C@@H](O)CC(=O)O[C@H]1C)C[C@H](O)[C@H]2C(=O)O [AMB, Amphotericin B, reference compound]
- CC50 at 72 h [1]: 53.9 ± 7.4 µM
- Leishmanicidal activity IS (Index of Selectivity = LC50/EC50) [4]: 134.8
- EC50 ([4]; Leishmania braziliensis, U-937): 0.4 ± 0.1 µM

Structure (SMILES): CCCCCCCCOC(=O)OC1CC(C)CCC1C(C)C (stereo not drawn) [Compound 9, Octyl(2-Isopropyl-5-methylcyclohexanol)carbonate]
- CC50 at 72 h [1]: 44.1 ± 3.8 µM
- Antiplasmodial activity IS (Index of Selectivity = LC50/EC50) [2]: 0.7
- EC50 [2]: 62.4 ± 6.5 µM
- Trypanocidal activity IS (Index of Selectivity = LC50/EC50) [3]: 1.7
- EC50 [3]: 26.7 ± 4.6 µM
- Leishmanicidal activity IS (Index of Selectivity = LC50/EC50) [4]: 0.1
- EC50 [4, 8]: 463 ± 206 µM

Structure (SMILES): CC1CCC(C(C)C)C(O)C1 (stereo not drawn) [Menthol, 2-Isopropyl-5-methylcyclohexanol]
- CC50 at 72 h [1]: 266 ± 188 µM
- Antiplasmodial activity IS (Index of Selectivity = LC50/EC50) [2]: 0.7
- EC50 [2]: 358 ± 51 µM
- Trypanocidal activity IS (Index of Selectivity = LC50/EC50) [3]: 1.5
- Trypanocidal activity class ([3]; T. cruzi amastigotes): low (low activity (EC50 > 100 μM))
- EC50 [3]: 173 ± 28.9 µM
- EC50 [4, 8]: > 128 µM
- EC50 [5]: 1270 µM

Structure (SMILES): CCCCCCOC(=O)OC1CC(C)CCC1C(C)C (stereo not drawn) [Compound 7, Hexyl(2-Isopropyl-5-methylcyclohexanol)carbonate]
- CC50 at 72 h [1]: 73.3 ± 15.8 µM
- Antiplasmodial activity IS (Index of Selectivity = LC50/EC50) [2]: 0.2
- Antiplasmodial activity class [2]: low (low activity (EC50 > 100 μM))
- EC50 [2]: 432 ± 239 µM
- Trypanocidal activity IS (Index of Selectivity = LC50/EC50) [3]: 1.6
- EC50 [3]: 46.3 ± 4.9 µM
- Leishmanicidal activity IS (Index of Selectivity = LC50/EC50) [4]: 2.6
- EC50 [4, 8]: 28.2 ± 1.1 µM

Structure (SMILES): CCCCCCCOC(=O)OC1CC(C)CCC1C(C)C (stereo not drawn) [Compound 8, Heptyl(2-Isopropyl-5-methylcyclohexanol)carbonate]
- CC50 at 72 h [1]: 48.4 ± 6.1 µM
- Antiplasmodial activity IS (Index of Selectivity = LC50/EC50) [2]: 0.7
- EC50 [2]: 67.4 ± 5.8 µM
- Trypanocidal activity IS (Index of Selectivity = LC50/EC50) [3]: 1.8
- EC50 [3]: 27.6 ± 4.4 µM
- EC50 [4, 8]: > 23.5 µM

Structure (SMILES): COc1cccc2c1C(=O)c1c(O)c3c(c(O)c1C2=O)C[C@@](O)(C(=O)CO)C[C@@H]3O[C@H]1C[C@H](N)[C@H](O)[C@H](C)O1 [DOXO, Doxorubicin, reference compound]
- CC50 at 72 h [1]: 1.7 ± 0.2 µM

Structure (SMILES): CCCCOC(=O)OC1CC(C)CCC1C(C)C (stereo not drawn) [Compound 5, Butyl(2-Isopropyl-5-methylcyclohexanol)carbonate]
- CC50 at 72 h [1]: 207 ± 38.2 µM
- Antiplasmodial activity IS (Index of Selectivity = LC50/EC50) [2]: 3.7
- EC50 [2]: 56.3 ± 1 µM
- Trypanocidal activity IS (Index of Selectivity = LC50/EC50) [3]: 1.7
- EC50 [3]: 122 ± 21.4 µM
- Leishmanicidal activity class [4]: moderate (moderate (EC50 > 50 μM < 100 μM))
- Leishmanicidal activity IS (Index of Selectivity = LC50/EC50) [4]: 3.5
- EC50 [4, 8]: 53.3 µM
- EC50 [4]: 59.3 ± 1.4 µM

Structure (SMILES): COC(=O)OC1CC(C)CCC1C(C)C (stereo not drawn) [Compound 1, Metyl(2-Isopropyl-5-methylcyclohexanol)carbonate]
- CC50 at 72 h [1]: 68.5 ± 6.7 µM
- Antiplasmodial activity IS (Index of Selectivity = LC50/EC50) [2]: 0.5
- Antiplasmodial activity class [2]: low (low activity (EC50 > 100 μM))
- EC50 [2]: 127 ± 9.9 µM
- Trypanocidal activity IS (Index of Selectivity = LC50/EC50) [3]: 0.6
- EC50 [3]: 105 ± 34.5 µM
- Leishmanicidal activity IS (Index of Selectivity = LC50/EC50) [4]: 3.0
- EC50 [4, 8]: 22.9 ± 2.8 µM

Structure (SMILES): CCCCCOC(=O)OC1CC(C)CCC1C(C)C (stereo not drawn) [Compound 6, Pentyl(2-Isopropyl-5-methylcyclohexanol)carbonate]
- Trypanocidal activity IS (Index of Selectivity = LC50/EC50) [3]: 7.4
- EC50 [3]: 29.6 ± 1.2 µM
- Leishmanicidal activity class [4]: moderate (moderate (EC50 > 50 μM < 100 μM))
- EC50 [4, 8]: 96.7 ± 0.6 µM
- protoscolicidal effect [6]: greater protoscolicidal effect than menthol
- clinical efficacy [7]: clinical efficacy similar to Albendazole

Structure (SMILES): CCCOC(=O)OC1CC(C)CCC1C(C)C (stereo not drawn) [Compound 3, Propyl(2-Isopropyl-5-methylcyclohexanol)carbonate]
- CC50 at 72 h [1]: 57 ± 14.4 µM
- Antiplasmodial activity IS (Index of Selectivity = LC50/EC50) [2]: 0.9
- EC50 [2]: 60.7 ± 1.2 µM
- Trypanocidal activity IS (Index of Selectivity = LC50/EC50) [3]: 1.7
- EC50 [3]: 33.8 µM
- Leishmanicidal activity IS (Index of Selectivity = LC50/EC50) [4]: 1.8
- EC50 [4, 8]: 31.8 ± 4.1 µM
